The values below come from patent US20070009593A1, “Methods of treating cancer” (Indianan University Advanced Research, priority 2002, published 2007).

As a reminder, the IC50 is the concentration that inhibits the measured activity by half. As a reminder, the IC80 is the concentration needed for an effect of 80%. The low end stands for greater potency, the high end for weaker potency.

Peptide text beside a SMILES is read from it. * marks the point of attachment. Cbz = O=C(OCc1ccccc1)* A value given as a limit tells only on which side of the number the result lay.

One assay concerns Caco 2 cells. Briefly: proliferation / combination assay in colon cancer cells. Type of assay: cell-based. As to conditions: Homo sapiens; Caco 2, single agent; read-out: IC50.
For assay [1], the system named is H23. Briefly: MTT assay, NSCLC cell line. In kind it is cell-based. Conditions: Homo sapiens, NCI-H23. In general terms: Tetrazolium dyes change colour on reduction, which living cells bring about.
For assay [2], the system named is A549. Briefly: MTT assay, NSCLC cell line. Type of assay: cell-based. Conditions: Homo sapiens; for IC80: A549, MTT assay, single agent; for IC50: MTT assay.
A further assay has as its system H522. Put plainly: MTT assay, NSCLC cell line. Type of assay: cell-based. Conditions: Homo sapiens; for IC50: NCI-H522; for IC80: NCI-H522, single agent.
Another assay concerns MDA-231. Briefly: MTT assay, breast cancer line. In kind it is cell-based. Conditions: Homo sapiens, MDA-MB-231; MDA-231, 48 hours, MTT, single agent; read-out: IC50. The procedure:
The drugs were tested together at the ratio of their IC50 as single agents, over a 4-log range of concentrations. […] Viable cell number was measured by MTT assay.

The test system of assay [3] is H460. Briefly: MTT assay, NSCLC cell line. In kind it is cell-based. Conditions: Homo sapiens; for IC50: NCI-H460; for IC80: NCI-H460, single agent.
Assay [4] addresses T1, chymotryptic active site of the proteasome (ZGGL-AMC cleavage) (Homo sapiens, UniProt P28074).
T1 construct: Fluorometric assay of ZGGL-AMC cleavage by Caco 2 cells; endogenous in cells; host or cells: Caco 2
Put plainly: fluorometric assay of ZGGL-AMC cleavage by Caco 2 cells. Conditions: for ZGGL-AMC cleavage: Caco 2 cells (DMSO control 0.287). Type of assay: cell-based.

The next assay concerns HUVEC. Put plainly: HUVEC cell spreading assay. In kind it is cell-based, human. Conditions: 100 μM, same spreading conditions. The procedure: Cells were fixed in 3.7% formaldehyde in PBS, blocked and stained with Oregon-green phalloidin 514 (Molecular Probes), and then digitally photographed using a Zeiss inverted fluorescence microscope equipped with a CCD camera. Cell areas were measured on the digital images using the Spot program (Diagnostic Imaging).

In assay [5] the test system is A549. Put plainly: cell survival at 60 hours, amprenavir. Type of assay: cell-based. As to conditions: A549, 60 hours, FIG. 4. The source says:
(§1) Three cancer cell lines (A549, H460, and H23) where treated with varying doses of amprenavir.

In assay [6] the test system is H23. Briefly: cell survival at 60 hours, amprenavir. Type of assay: cell-based. As to conditions: H23, 60 hours, FIG. 4.
Text: as §1

The subject of assay [7] is H460. Put plainly: cell survival at 60 hours, amprenavir. Type of assay: cell-based. As to conditions: H460, 60 hours, FIG. 4.
Text: as §1

`Cc1ccc(-c2cc(C(F)(F)F)nn2-c2ccc(S(N)(=O)=O)cc2)cc1` [Celecoxib, celecoxib]: in the assay with Caco 2 cells, the IC50 is 60000 nM.

Turning to `CC(=O)O[C@@]12CO[C@@H]1C[C@H](O)[C@@]1(C)C(=O)[C@H](O)C3=C(C)[C@@H](OC(=O)[C@H](O)[C@@H](NC(=O)OC(C)(C)C)c4ccccc4)C[C@@](O)([C@@H](OC(=O)c4ccccc4)[C@H]21)C3(C)C` [Docetaxel, docetaxel], the IC50 in the assay with H23 [1] was 5.5 nM; with A549 [2], 4.5 nM; in the assay on H522 it was 4.9 nM; in the assay with Caco 2 cells, 5 nM; in the assay with MDA-231, 10 nM; in the assay on H460 [3], 5 nM. Besides, the IC80 in the assay with A549 [2], in the assay on H522 and with H460 [3] was above 50 nM each time.

On to `O=c1[nH]cc(F)c(=O)[nH]1` [Formula 5-FU, 5-fluorouracil], for which the IC50 in the assay with Caco 2 cells worked out at 28000 nM.

For `CC(=O)N[C@@H](CSC(=O)[C@]1([C@@H](O)C(C)C)NC(=O)[C@H](C)[C@@H]1O)C(=O)O` [Lactacystin, lactacystin], in [4] (5 μM, Caco 2 cells), the “blocks substrate cleavage (ZGGL-AMC)” value was “over 95%”. Besides, the ZGGL-AMC cleavage in [4] (5 μM) is 0.022 pmol·s^1− 10^6 cells.

Turning to `CC(C)[C@H](NC(=O)OCc1ccccc1)C(=O)N[C@H](C=O)Cc1ccccc1` [MDL 28, 170] (Cbz-Val-Phe-aldehyde), the blocked spreading in the assay on HUVEC came out at 21%.

Consider `O=C(O)/C(S)=C/c1ccc(I)cc1` [PD150606], for which, in [4] (50 μM), the ZGGL-AMC cleavage is given as 0.187 pmol·s^1− 10^6 cells. For the same compound, in assay [4] (Caco 2 cells (50 μM in table)), the “blocks ZGGL-AMC cleavage” value is listed as “less than 30%”.

Regarding `CC(=O)O[C@H]1C(=O)[C@@]2(C)[C@H]([C@H](OC(=O)c3ccccc3)[C@]3(O)C[C@H](OC(=O)[C@H](O)[C@@H](NC(=O)c4ccccc4)c4ccccc4)C(C)=C1C3(C)C)[C@]1(OC(C)=O)CO[C@@H]1C[C@@H]2O` [Paclitaxel, paclitaxel], the IC50 in the assay on H23 [1] came to 110 nM; in the assay with A549 [2], 90 nM; in the assay with H522, 105 nM; in the assay on Caco 2 cells, 400 nM; in the assay with H460 [3] it was 120 nM. Further, the IC80 with A549 [2], with H522 and in the assay with H460 [3] was above 200 nM in each case.

Turning to amprenavir, the IC50 with A549 [5], with H23 [6] and with H460 [7] was 4000 to 5000 nM throughout.
